Measured values reported in a melting point compilation (Tetko et al.).

`Nc1cc(-c2ccc(Br)s2)n[nH]1` gave a melting point of 141 to 143 °C.
`O=C(O)CNc1nc2ccccc2s1` showed a melting point of 174 to 176 °C.
With `O=C(c1ccc(F)cc1)c1ncccn1` the melting point was 128 to 130 °C.
Work on `CC(C)Cc1ccc(C(=O)O)cc1` yielded a melting point of 144 to 146 °C.
Work on `O=C(NC1CC1)c1cc(Cl)nc2ccccc12` yielded a melting point of 190 to 193 °C.
For `Cc1cc(C=O)c(C)n1C(C)C`, the melting point was 45 to 47 °C.
For `CCOc1c(OC)cc(C=O)cc1OC`, the melting point was 48 to 50 °C.
Compound `Cc1nn(C(C)(C)C)c(C)c1S(=O)(=O)Cl` has a melting point of 68 to 70 °C.
Compound `CCn1c(=O)cc(Cl)[nH]c1=O` has a melting point of 210 to 212 °C.
`Nn1c(S)nnc1-c1ccc(Br)cc1` showed a melting point of 202 to 204 °C.
With `CCNC(=O)OCC(F)(F)F` the melting point was 27 to 29 °C.
Work on `Cc1ccc(-n2cnnn2)cc1N` yielded a melting point of 171 to 173 °C.
In the case of `ClCc1ccc(I)cc1`, the melting point is reported as 49 to 51 °C.
For `Oc1cccc2c1NCCC2`, the melting point was 116 to 118 °C.
For `O=C(O)c1cc(-c2cccc(Cl)c2)nc2nc(N3CCCCC3)sc12`, the melting point was 199 to 203 °C.
With `O=C(O)CSc1nnc(C2CC2)n1Cc1ccccc1` the melting point was 194 to 196 °C.
With `O=C(Nc1ccccn1)c1ccc(Br)cc1` the melting point was 134 to 136 °C.
`CC(C)(C)OC(=O)Nc1cn[nH]c1` gave a melting point of 179 to 181 °C.
Work on `Cc1nc(/C=C/C(=O)O)cs1` yielded a melting point of 177 to 179 °C.
In the case of `Cc1cc2c(Cl)ncnc2s1`, the melting point is reported as 79 to 81 °C.
For `CS(=O)CCC(=O)O` (configuration not stated), the melting point was 57 to 59 °C.
In the case of `NNC(=O)c1cc(-c2ccco2)nc2ccccc12`, the melting point is reported as 219 to 221 °C.
For `NC(=O)c1ccc(NCC(=O)O)cc1`, the melting point was 271 to 273 °C.
For `COC(=O)c1noc(C(=O)OC)c1O`, the melting point was 157 to 161 °C.
In the case of `CC(=O)N1CCN(CC#N)CC1`, the melting point is reported as 107 to 109 °C.
Work on `Nc1cc(F)c(-n2ccnc2)c(F)c1` yielded a melting point of 159 to 161 °C.
Work on `COc1ccc(CNS(=O)(=O)CC#N)cc1OC` yielded a melting point of 126 to 128 °C.
For `O=C(O)Cc1ccc(NC(=O)c2ccc(Br)cc2)cc1`, the melting point was 269 to 271 °C.
`COc1ccc(NS(=O)(=O)c2cc(C(=O)O)ccc2C)cc1` gave a melting point of 71 to 73 °C.
In the case of `CC1CCc2c(sc3ncnc(Cl)c23)C1` (configuration not stated), the melting point is reported as 119 to 121 °C.
With `OCCN1CCN(Cc2ccsc2)CC1` the melting point was 68 to 70 °C.
For `O=C(O)CCc1ccnc2ccccc12`, the melting point was 197 to 199 °C.
`CCOC(=O)c1cc2cc(C(=O)O)ccc2[nH]1` showed a melting point of 247 to 249 °C.
For `O=C(CCl)NCCc1c[nH]c2ccccc12`, the melting point was 82 to 84 °C.
Compound `C1Cc2nn[nH]c2CN1` has a melting point of 154 to 156 °C.
Work on `COc1ccc(N)cc1NC(=O)OC(C)(C)C` yielded a melting point of 108 to 110 °C.
Compound `O[C@@H]1CCCOc2ccccc21` has a melting point of 89 to 91 °C.
`CCOC(=O)c1sc2nc(C)nc(Cl)c2c1C` gave a melting point of 145 to 147 °C.
Compound `O=c1cc(C(F)(F)F)[nH]c(=O)[nH]1` has a melting point of 210 to 212 °C.
With `CCN(CC)S(=O)(=O)c1ccc(CCC(=O)O)cc1` the melting point was 150 to 152 °C.
`CCC(C#N)(CC)NC(=O)OC(C)(C)C` gave a melting point of 98 to 100 °C.
`Cc1cccc(NC(S)=C(C#N)c2nc3ccccc3s2)c1C` showed a melting point of 94 to 98 °C.
`O=[N+]([O-])c1ccc(Cl)nc1O` showed a melting point of 139 to 141 °C.
With `COc1ccccc1N(CCC#N)C(=O)C(C)Cl` (configuration not stated) the melting point was 71 to 73 °C.
`O=C(O)C=CC1CCCCC1` showed a melting point of 54 to 56 °C.
`O=C(Nc1cccc(-c2nnnn2C2CC2)c1)OCC(F)(F)F` gave a melting point of 124 to 126 °C.
`Cc1[nH]c(C(=O)O)c(C)c1C(=O)O` gave a melting point of 244 to 246 °C.
`NNC(=O)c1cc(-c2ccccc2)on1` showed a melting point of 125 to 127 °C.
For `CCS(=O)(=O)CCOc1ccc(S(=O)(=O)Cl)cc1`, the melting point was 92 to 94 °C.
`COc1ccccc1C1CC1C(=O)O` (configuration not stated) gave a melting point of 137 to 139 °C.
In the case of `Nc1c(Cl)ncnc1N1CCCC1`, the melting point is reported as 103 to 105 °C.
In the case of `COc1ccc(Oc2ccc(Cl)cc2N)cc1`, the melting point is reported as 47 to 49 °C.
`Cc1csc(-c2cccc(N)c2)n1` showed a melting point of 82 to 84 °C.
`Cc1nc(CNc2ccc(F)cc2)cs1` showed a melting point of 76 to 78 °C.
In the case of `Cc1ccc(S(N)(=O)=O)c(F)c1`, the melting point is reported as 138 to 140 °C.
Work on `NC(=O)c1cccc(NCc2ccc(F)cc2)c1` yielded a melting point of 136 to 138 °C.
`Cc1nc(Cl)c2cnn(-c3ccc(F)cc3)c2n1` gave a melting point of 114 to 116 °C.
In the case of `Clc1nc(CN2CCOCC2)nc2scc(-c3ccccc3)c12`, the melting point is reported as 82 to 84 °C.
`CC1CC(C(=O)O)CC(C)O1` (configuration not stated) showed a melting point of 109 to 111 °C.
Compound `CSc1ccc(C(=O)CCl)cc1NC(C)=O` has a melting point of 98 to 102 °C.
`O=C(CCl)NCC1Cc2ccccc2O1` (configuration not stated) gave a melting point of 94 to 96 °C.
`Cn1nnnc1-c1cccc(S(=O)(=O)Cl)c1` gave a melting point of 86 to 88 °C.
In the case of `Oc1cccc(-n2ccnc2)c1`, the melting point is reported as 172 to 174 °C.
`O=S(=O)(Cl)c1cc2c(cc1Cl)OCCCO2` gave a melting point of 92 to 94 °C.
In the case of `COc1ccc(S(=O)(=O)N2CCOCC2)cc1C(=O)O`, the melting point is reported as 180 to 184 °C.
`O=C(O)CCn1cnc2ccccc2c1=O` showed a melting point of 181 to 183 °C.
`COc1ccc(C(O)c2ccc(OC)cc2C)cc1` (configuration not stated) showed a melting point of 71 to 73 °C.
For `Cc1ccc(NS(=O)(=O)c2c[nH]c(C(=O)O)c2)c(C)c1`, the melting point was 218 to 220 °C.
For `Nc1ccccc1Oc1ccncc1`, the melting point was 98 to 100 °C.
With `CNC(=O)CNc1ccccc1C` the melting point was 112 to 114 °C.
In the case of `CCOc1cccc(CC(=O)O)c1`, the melting point is reported as 89 to 91 °C.
Work on `COc1cc(OC)cc(C(=O)c2c(N)sc3c2CCC(C)C3)c1` (configuration not stated) yielded a melting point of 162 to 164 °C.
